Several values for one entry are separate records, joined by “and”; a condition that tells them apart may be missing. Equal values may be shown once. Toxic doses and inconclusive results are not listed.
System: BDF1 mice, P388 leukemia ip, median survival T/C
Test: NCI In Vivo Anticancer Drug Screen. Data for tumor model P388 Leukemia (intraperitoneal) in B6D2F1 (BDF1) mice
Settings: endpoint: median survival time, higher = longer survival
Outline: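 In tumour-bearing mice, survival after compound treatment is set against the vehicle group and given as a quotient.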

[1] = dose: 100.0 mg/kg/injection, schedule: Q01DX009 (ip), vehicle: saline
[2] = dose: 100.0 mg/kg/injection, schedule: Q04DX003 (ip), vehicle: saline
[3] = dose: 200.0 mg/kg/injection, schedule: Q01DX009 (ip), vehicle: saline
[4] = dose: 200.0 mg/kg/injection, schedule: Q04DX003 (ip), vehicle: saline
[5] = dose: 400.0 mg/kg/injection, schedule: Q01DX009 (ip), vehicle: saline
[6] = dose: 400.0 mg/kg/injection, schedule: Q04DX003 (ip), vehicle: saline
[7] = dose: 100.0 mg/kg/injection, schedule: Q01DX009 (ip), vehicle: Klucel (hydroxypropylcellulose) (HPC)
[8] = dose: 100.0 mg/kg/injection, schedule: Q04DX003 (ip), vehicle: Klucel (hydroxypropylcellulose) (HPC)
[9] = dose: 200.0 mg/kg/injection, schedule: Q04DX003 (ip), vehicle: Klucel (hydroxypropylcellulose) (HPC)
[10] = dose: 400.0 mg/kg/injection, schedule: Q04DX003 (ip), vehicle: Klucel (hydroxypropylcellulose) (HPC)
[11] = dose: 50.0 mg/kg/injection, schedule: Q01DX009 (ip), vehicle: saline
[12] = dose: 50.0 mg/kg/injection, schedule: Q01DX009 (ip), vehicle: saline with Tween-80
[13] = dose: 100.0 mg/kg/injection, schedule: Q01DX009 (ip), vehicle: saline with Tween-80
[14] = dose: 200.0 mg/kg/injection, schedule: Q01DX009 (ip), vehicle: saline with Tween-80
[15] = dose: 25.0 mg/kg/injection, schedule: Q04DX003 (ip), vehicle: saline with Tween-80
[16] = dose: 50.0 mg/kg/injection, schedule: Q04DX003 (ip), vehicle: saline with Tween-80
[17] = dose: 100.0 mg/kg/injection, schedule: Q04DX003 (ip), vehicle: saline with Tween-80
[18] = dose: 200.0 mg/kg/injection, schedule: Q04DX003 (ip), vehicle: saline with Tween-80
[19] = dose: 6.25 mg/kg/injection, schedule: Q01DX009 (ip), vehicle: saline with Tween-80
[20] = dose: 12.5 mg/kg/injection, schedule: Q01DX009 (ip), vehicle: saline with Tween-80
[21] = dose: 400.0 mg/kg/injection, schedule: Q04DX003 (ip), vehicle: saline with Tween-80
[22] = dose: 25.0 mg/kg/injection, schedule: Q01DX009 (ip), vehicle: saline with Tween-80

In the case of `CCCN1c2c(nc(N)[nH]c2=O)NCC1CNc1ccc(C(=O)NC(CCC(=O)O)C(=O)O)cc1` (configuration not stated), the T/C [1] is reported as 108 % of control, the T/C [2] is reported as 112 % of control and the T/C [3] is reported as 100 % of control. For the same compound, the T/C [4] was 100 % of control, the T/C [5] was 110 % of control and the T/C [6] was 91 % of control.

For `COC(=O)C1OC1c1ccccc1` (configuration not stated), the T/C [7] was 100 % of control, the T/C [8] was 95 % of control and the T/C (dose: 200.0 mg/kg/injection, schedule: Q01DX009 (ip), vehicle: Klucel (hydroxypropylcellulose) (HPC)) was 100 % of control. The T/C [9] was 95 % of control, the T/C (dose: 400.0 mg/kg/injection, schedule: Q01DX009 (ip), vehicle: Klucel (hydroxypropylcellulose) (HPC)) was 100 % of control and the T/C [10] was 95 % of control.

With `COc1cc([N+](=O)[O-])c(C)cc1NCc1ccc(OC)c(OC)c1` the T/C (dose: 25.0 mg/kg/injection, schedule: Q01DX009 (ip), vehicle: saline) was 100 % of control, the T/C [11] was 99 % of control and the T/C [1] was 94 % of control.

`COc1cccc(S(=O)c2ccc([N+](=O)[O-])c3no[n+]([O-])c23)c1` (configuration not stated) was tested, and the T/C (dose: 15.0 mg/kg/injection, schedule: Q01DX009 (ip), vehicle: saline with Tween-80) was 112 % of control.

With `O=C1CC(=Nc2ccccc2)N(c2ccccc2)N1` the T/C (dose: 33.75 mg/kg/injection, schedule: Q01DX009 (ip), vehicle: saline with Tween-80) was 109 % of control, the T/C (dose: 67.5 mg/kg/injection, schedule: Q01DX009 (ip), vehicle: saline with Tween-80) was 91 % of control and the T/C (dose: 135.0 mg/kg/injection, schedule: Q01DX009 (ip), vehicle: saline with Tween-80) was 89 % of control.

`COc1ccc(CNCCO)cc1` was tested, and the T/C (dose: 50.0 mg/kg/injection, schedule: Q04DX003 (ip), vehicle: saline) was 108 % of control, the T/C [1] was 109 % of control and the T/C [2] was 100 % of control and 116 % of control. The T/C [3] was 90 % of control, the T/C [4] was 91 % of control and the T/C [5] was 111 % of control. For the same compound, the T/C [6] was 91 % of control and 95 % of control.

In the case of `CCNC(C)(C)C(SSSC(c1cccs1)C(C)(C)NCC)c1cccs1` (configuration not stated), the T/C (dose: 100.0 mg/kg/injection, schedule: Q01DX001 (ip), vehicle: saline) is reported as 104 % of control and the T/C (dose: 200.0 mg/kg/injection, schedule: Q01DX001 (ip), vehicle: saline) is reported as 118 % of control.

With `O=C1CSC(=S)N1` the T/C [12] was 122 % of control, the T/C [13] was 122 % of control and the T/C [14] was 104 % of control.

`CC(=O)OC1(C)CC(C)(C)N=[N+]1[O-]` (configuration not stated) was tested, and the T/C (dose: 12.5 mg/kg/injection, schedule: Q01DX005 (ip), vehicle: other) was 103 % of control, the T/C (dose: 25.0 mg/kg/injection, schedule: Q01DX005 (ip), vehicle: other) was 103 % of control and the T/C (dose: 50.0 mg/kg/injection, schedule: Q01DX005 (ip), vehicle: other) was 121 % of control. The T/C (dose: 100.0 mg/kg/injection, schedule: Q01DX005 (ip), vehicle: other) was 103 % of control and the T/C (dose: 200.0 mg/kg/injection, schedule: Q01DX005 (ip), vehicle: other) was 109 % of control.

With `COc1cccc2c1C(=O)c1c(O)c3c(c(O)c1C2=O)C[C@@](O)(C(C)=O)C[C@@H]3OC1CC(N(C)C)C(O)C(C)O1` (some centres not stated) the T/C (dose: 3.46 mg/kg/injection, schedule: Q04DX003 (ip), vehicle: water) was 161 % of control, the T/C (dose: 5.76 mg/kg/injection, schedule: Q04DX003 (ip), vehicle: water) was 167 % of control and the T/C (dose: 9.6 mg/kg/injection, schedule: Q04DX003 (ip), vehicle: water) was 184 % of control. The T/C (dose: 16.0 mg/kg/injection, schedule: Q04DX003 (ip), vehicle: water) was 110 % of control.

`CCC/C(=N\Nc1ccc([N+](=O)[O-])cc1[N+](=O)[O-])c1ccccc1` was tested, and the T/C [15] was 90 % of control, the T/C [16] was 100 % of control and the T/C [17] was 109 % of control.

With `CCN(CC)CC(O)CNC(=O)c1c2nc3c(C(=O)NCC(O)CN(CC)CC)ccc(C)c3oc-2c(C)c(=O)c1N` (configuration not stated) the T/C (dose: 50.0 mg/kg/injection, schedule: Q04DX002 (ip), vehicle: saline with Tween-80) was 110 % of control and the T/C (dose: 100.0 mg/kg/injection, schedule: Q04DX002 (ip), vehicle: saline with Tween-80) was 106 % of control and 120 % of control.

`CC1C(=O)CC(=O)C1=O` (configuration not stated) was tested, and the T/C [11] was 100 % of control, the T/C [1] was 104 % of control and the T/C [3] was 104 % of control.

`O=[N+]([O-])C(Br)(c1ccccc1)S(=O)(=O)Cc1ccccc1` (configuration not stated) was tested, and the T/C [8] was 104 % of control, the T/C [9] was 108 % of control and the T/C [10] was 108 % of control.

In the case of `CC(=O)c1ccccc1C`, the T/C [12] is reported as 100 % of control, the T/C [16] is reported as 100 % of control and the T/C [13] is reported as 109 % of control. For the same compound, the T/C [17] was 100 % of control, the T/C [14] was 95 % of control and the T/C [18] was 100 % of control.

`CCCC(O)C(C)(C)[N+](=O)[O-]` (configuration not stated) was tested, and the T/C [19] was 99 % of control and the T/C [20] was 89 % of control.

For `CCSc1nc(C=O)c(Cc2ccc(Br)cc2)c(=O)[nH]1`, the T/C [17] was 109 % of control, the T/C [18] was 122 % of control and the T/C [21] was 150 % of control.

For `O=[N+]([O-])c1ccccc1NC1c2ccccc2Oc2ccccc21`, the T/C [8] was 116 % of control, the T/C [9] was 122 % of control and the T/C [10] was 122 % of control.

`COCCn1c2nc(=O)n(-c3ccccc3)c(=O)c-2nc2c1CCCC2` was tested, and the T/C [22] was 103 % of control, the T/C [12] was 97 % of control and 112 % of control and the T/C [13] was 113 % of control and 124 % of control. The T/C [14] was 110 % of control.

`COC1C(O)CC(=O)OC(C)C/C=C/C=C/C(OC2CCC(N(C)C)C(C)O2)C(C)CC(CC=O)C1OC1OC(C)C(OC2CC(C)(O)C(O)C(C)O2)C(N(C)C)C1O` (configuration not stated) was tested, and the T/C [19] was 102 % of control, the T/C [20] was 94 % of control and the T/C [22] was 100 % of control.

For `CC(=O)N1C(=O)N(Cl)C(=O)C1(C)c1cccs1` (configuration not stated), the T/C (dose: 66.0 mg/kg/injection, schedule: Q01DX009 (ip), vehicle: saline with Tween-80) was 97 % of control, the T/C [13] was 103 % of control and the T/C [14] was 100 % of control.

With `CC1CCCC[N-]1.CC1CCCC[N-]1.[Cl][Pt+2][Cl]` (configuration not stated) the T/C (dose: 50.0 mg/kg/injection, schedule: Q01DX009 (ip), vehicle: Klucel (hydroxypropylcellulose) (HPC)) was 103 % of control and the T/C [7] was 97 % of control.

For `CC(/C=C/C1(C)C(C)CCC(=O)C1C)=C\Cc1c(O)c(Cl)c(C)c(C=O)c1O` (configuration not stated), the T/C (dose: 12.5 mg/kg/injection, schedule: Q04DX003 (ip), vehicle: saline with Tween-80) was 92 % of control and the T/C [15] was 90 % of control.

With `C/C=C/C=C/NC(=O)Oc1ccccc1` the T/C [17] was 91 % of control, the T/C [18] was 94 % of control and the T/C [21] was 116 % of control.

`N#C[S-].N#C[S-].[NH-]CC[NH-].[Pt+4]` was tested, and the T/C (dose: 10.0 mg/kg/injection, schedule: Q01DX009 (ip), vehicle: saline with Tween-80) was 113 % of control, the T/C (dose: 10.0 mg/kg/injection, schedule: Q04DX003 (ip), vehicle: saline with Tween-80) was 104 % of control and the T/C (dose: 20.0 mg/kg/injection, schedule: Q04DX003 (ip), vehicle: saline with Tween-80) was 100 % of control. The T/C (dose: 26.4 mg/kg/injection, schedule: Q01DX009 (ip), vehicle: saline with Tween-80) was 90 % of control, the T/C (dose: 40.0 mg/kg/injection, schedule: Q01DX009 (ip), vehicle: saline with Tween-80) was 90 % of control and the T/C (dose: 40.0 mg/kg/injection, schedule: Q04DX003 (ip), vehicle: saline with Tween-80) was 86 % of control. For the same compound, the T/C (dose: 60.0 mg/kg/injection, schedule: Q01DX009 (ip), vehicle: saline with Tween-80) was 118 % of control.

For `Cc1cccc2cc3cccc(C)[n+]3cc12`, the T/C (dose: 5.0 mg/kg/injection, schedule: Q01DX010 (ip), vehicle: saline) was 100 % of control.

`COC(=O)/C=C1/OC(=O)CC1(C)C` was tested, and the T/C (dose: 100.0 mg/kg/injection, schedule: Q01DX001 (ip), vehicle: saline with Tween-80) was 105 % of control, the T/C (dose: 200.0 mg/kg/injection, schedule: Q01DX001 (ip), vehicle: saline with Tween-80) was 95 % of control and the T/C (dose: 400.0 mg/kg/injection, schedule: Q01DX001 (ip), vehicle: saline with Tween-80) was 100 % of control.

For `CC(C)(C)CC(=O)OCCC[N+](C)(C)C`, the T/C (dose: 6.25 mg/kg/injection, schedule: Q01DX009 (ip), vehicle: water) was 103 % of control, the T/C (dose: 12.5 mg/kg/injection, schedule: Q01DX009 (ip), vehicle: water) was 119 % of control and the T/C (dose: 25.0 mg/kg/injection, schedule: Q01DX009 (ip), vehicle: water) was 99 % of control. The T/C (dose: 50.0 mg/kg/injection, schedule: Q01DX009 (ip), vehicle: water) was 91 % of control.

— PubChem BioAssay AID328 (DTP/NCI, 2004)
